# According to ChEMBL document CHEMBL1201862, “PubChem BioAssay data set” (2004):
# Calls of active or inactive are those of the source.
# What was measured:
# [1] = target: T1, Bcl-2-like protein 10 (Homo sapiens, UniProt Q9HD36); assay: Bcl-B/TR3 peptide binding disruption – biochemical, fluorescence polarization, FITC-TR3 peptide, selectivity assay for Bfl-1 inhibitor project, primary screen (AID 748);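 further: fluorescence polarization from a fluorescein-labelled TR3 peptide binding purified Bcl-B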
# T1 sequence (Q9HD36 whole entry): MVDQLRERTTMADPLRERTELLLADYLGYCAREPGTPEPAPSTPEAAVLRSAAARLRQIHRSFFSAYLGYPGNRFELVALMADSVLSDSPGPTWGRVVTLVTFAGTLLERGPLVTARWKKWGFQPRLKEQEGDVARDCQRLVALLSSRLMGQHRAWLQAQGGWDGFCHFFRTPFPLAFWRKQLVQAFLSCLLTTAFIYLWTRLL
# [2] = viability of uninfected HEp-2 cells – cell-based, HTS, cytotoxicity control for RSV inhibitor project, dose response (AID 2410); assay type: functional; details: human respiratory syncytial virus
# [3] = target: T2, Aryl hydrocarbon receptor (Homo sapiens, UniProt P35869); assay: Luminescence-based cell-based high throughput dose response assay for activators of the Aryl Hydrocarbon Receptor (AHR). [Related pubchem assays: 2796 (Primary screen (AHR activators in singlicate)), 2845 (Confirmation screen (AHR activators in triplicate)), 434939 (Counterscreen (PXR activators in triplicate)), 2804 (Summary (AHR activators))]; assay type: ADME
# T2 sequence (P35869 whole entry): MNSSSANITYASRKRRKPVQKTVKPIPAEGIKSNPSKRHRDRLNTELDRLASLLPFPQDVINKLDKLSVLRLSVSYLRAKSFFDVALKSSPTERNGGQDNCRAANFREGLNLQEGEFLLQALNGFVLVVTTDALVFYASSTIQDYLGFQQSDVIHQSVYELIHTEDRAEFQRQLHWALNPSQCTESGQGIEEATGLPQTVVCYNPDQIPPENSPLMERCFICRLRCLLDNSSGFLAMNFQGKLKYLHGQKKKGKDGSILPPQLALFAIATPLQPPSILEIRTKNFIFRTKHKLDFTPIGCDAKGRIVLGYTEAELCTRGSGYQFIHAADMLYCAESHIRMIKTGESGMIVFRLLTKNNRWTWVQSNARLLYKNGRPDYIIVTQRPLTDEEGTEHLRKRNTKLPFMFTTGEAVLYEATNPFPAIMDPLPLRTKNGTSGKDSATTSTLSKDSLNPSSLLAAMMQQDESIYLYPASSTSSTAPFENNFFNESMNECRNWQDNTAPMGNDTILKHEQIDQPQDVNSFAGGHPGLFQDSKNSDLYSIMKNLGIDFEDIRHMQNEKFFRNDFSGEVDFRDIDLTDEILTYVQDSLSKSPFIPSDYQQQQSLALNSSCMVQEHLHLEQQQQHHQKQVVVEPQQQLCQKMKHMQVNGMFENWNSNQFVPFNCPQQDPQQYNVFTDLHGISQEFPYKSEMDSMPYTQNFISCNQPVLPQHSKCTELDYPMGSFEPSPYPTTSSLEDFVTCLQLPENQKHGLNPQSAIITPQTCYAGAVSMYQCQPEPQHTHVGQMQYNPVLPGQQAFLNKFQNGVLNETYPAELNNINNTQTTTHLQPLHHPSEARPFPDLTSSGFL
# [4] = target: DNA damage-inducible transcript 3 protein (Mus musculus, UniProt P35639); assay type: functional, Cricetulus griseus
# Sequence of DNA damage-inducible transcript 3 protein (P35639 whole entry): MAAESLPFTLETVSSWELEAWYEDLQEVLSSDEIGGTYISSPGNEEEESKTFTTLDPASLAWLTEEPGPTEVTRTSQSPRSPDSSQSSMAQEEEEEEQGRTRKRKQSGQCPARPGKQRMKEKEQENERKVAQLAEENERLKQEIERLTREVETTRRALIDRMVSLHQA
# [5] = target: X-box-binding protein 1 (Homo sapiens, UniProt P17861); assay type: functional, Cricetulus griseus;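 further: confirmatory dose-response counter-screen serving a CHOP assay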
# Sequence of X-box-binding protein 1 (P17861 whole entry): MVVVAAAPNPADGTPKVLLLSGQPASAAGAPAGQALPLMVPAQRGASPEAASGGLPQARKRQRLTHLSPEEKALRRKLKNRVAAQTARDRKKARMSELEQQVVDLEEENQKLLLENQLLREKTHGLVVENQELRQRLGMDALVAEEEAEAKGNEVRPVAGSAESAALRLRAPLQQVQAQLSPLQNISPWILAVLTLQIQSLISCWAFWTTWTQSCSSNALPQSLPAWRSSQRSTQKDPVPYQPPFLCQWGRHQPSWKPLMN
# [6] = target: T3, Protein skinhead-1 (Caenorhabditis elegans, UniProt P34707); assay type: functional
# T3 sequence (P34707 whole entry): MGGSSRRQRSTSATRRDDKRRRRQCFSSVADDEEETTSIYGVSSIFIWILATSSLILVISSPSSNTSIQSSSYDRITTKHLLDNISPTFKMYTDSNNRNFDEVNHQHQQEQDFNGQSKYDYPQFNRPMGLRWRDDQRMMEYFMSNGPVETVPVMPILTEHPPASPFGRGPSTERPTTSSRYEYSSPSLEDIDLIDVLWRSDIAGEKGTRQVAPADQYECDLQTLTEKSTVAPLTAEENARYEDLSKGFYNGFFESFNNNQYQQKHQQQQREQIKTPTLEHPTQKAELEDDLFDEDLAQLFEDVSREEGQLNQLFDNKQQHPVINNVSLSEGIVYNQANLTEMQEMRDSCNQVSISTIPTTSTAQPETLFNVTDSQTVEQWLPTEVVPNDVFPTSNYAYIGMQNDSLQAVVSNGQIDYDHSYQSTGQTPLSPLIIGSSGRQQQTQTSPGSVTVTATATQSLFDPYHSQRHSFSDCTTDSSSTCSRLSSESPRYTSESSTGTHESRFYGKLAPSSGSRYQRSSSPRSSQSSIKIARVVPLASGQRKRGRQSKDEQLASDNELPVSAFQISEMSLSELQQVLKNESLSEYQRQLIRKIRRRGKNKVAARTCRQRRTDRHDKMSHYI
# [7] = target: T4, Oxysterols receptor LXR-beta (Homo sapiens, UniProt P55055); assay type: functional, cell-based;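 further: agonist activity at LXR measured by a cell-based luminescence readout across a dose range, run as a counterscreen for daf-12 agonists; HEK293 cells with Gal4-LXR fusion and GAL4-driven luciferase reporter; potency for activation of Gal4-LXR reporter so compounds are agonists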
# T4 sequence (P55055 whole entry): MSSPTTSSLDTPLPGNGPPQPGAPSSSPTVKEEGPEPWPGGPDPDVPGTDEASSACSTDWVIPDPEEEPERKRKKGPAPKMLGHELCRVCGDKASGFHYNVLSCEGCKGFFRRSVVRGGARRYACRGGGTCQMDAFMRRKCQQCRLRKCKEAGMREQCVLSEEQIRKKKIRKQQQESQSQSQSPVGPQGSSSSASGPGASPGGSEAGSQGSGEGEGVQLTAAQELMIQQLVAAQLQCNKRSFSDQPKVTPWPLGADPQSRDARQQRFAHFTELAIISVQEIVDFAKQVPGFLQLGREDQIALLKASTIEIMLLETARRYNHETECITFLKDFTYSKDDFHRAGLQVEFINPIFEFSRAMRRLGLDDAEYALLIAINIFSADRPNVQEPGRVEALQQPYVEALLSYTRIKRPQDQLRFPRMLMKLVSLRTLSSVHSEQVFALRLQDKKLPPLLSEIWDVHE
# [8] = luciferase reporter signal suppression in cells – H4 neuroglioma cells, luminescence, dose response (AID 1990); assay type: functional, cell-based
# [9] = test system: Streptococcus sp. 'group A'; assay: Streptococcus pyogenes SK(-)GAS viability under kanamycin – luminescence, BacTiterGlo, confirmation, counter-screen for streptokinase expression inhibitor project, dose response (AID 1900); assay type: functional, organism-based
# [10] = Luminescence Cell-Based Dose Response HTS to Identify Inhibitors of 5'UTR Stem-Loop Driven Prion Protein mRNA Translation in H4 Neuroglioblastoma Cells. [Related pubchem assays: 1827 (Project Summary), 1813 (Primary HTS)]; assay type: functional
# [11] = target: T5, Heat shock factor protein 1 (Mus musculus, UniProt P38532); assay: decrease of HSF1-responsive luciferase luminescence – cell-based, NIH3T3, dose retest, confirmation (AID 2382); assay type: functional;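 further: NIH3T3 fibroblasts with HSF1-driven luciferase reporter stressed by proteasome inhibitor MG132; luminescence from HSF1-driven luciferase expression after 8 hours of MG132 stress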
# T5 sequence (P38532 whole entry): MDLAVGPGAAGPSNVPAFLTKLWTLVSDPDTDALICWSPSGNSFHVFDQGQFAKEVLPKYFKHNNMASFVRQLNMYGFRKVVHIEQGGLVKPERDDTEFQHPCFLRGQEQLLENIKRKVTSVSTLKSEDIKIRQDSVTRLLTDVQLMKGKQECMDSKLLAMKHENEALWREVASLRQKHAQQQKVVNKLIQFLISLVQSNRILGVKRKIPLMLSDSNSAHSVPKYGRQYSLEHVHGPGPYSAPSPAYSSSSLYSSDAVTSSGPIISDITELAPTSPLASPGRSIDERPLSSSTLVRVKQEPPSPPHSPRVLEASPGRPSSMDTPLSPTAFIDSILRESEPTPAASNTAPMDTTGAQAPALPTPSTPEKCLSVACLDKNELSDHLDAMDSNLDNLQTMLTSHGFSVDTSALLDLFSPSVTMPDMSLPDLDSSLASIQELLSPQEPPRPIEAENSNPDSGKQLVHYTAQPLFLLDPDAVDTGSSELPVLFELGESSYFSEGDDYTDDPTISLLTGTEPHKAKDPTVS
# [12] = alpha-synuclein stem-loop luciferase translation blockers – H4 neuroglioma cells, luminescence, confirmation (AID 1988); assay type: functional, cell-based
# [13] = target: T6, Streptokinase A (Streptococcus pyogenes serotype M1, UniProt P10520); assay: viability-normalized secreted streptokinase activity reduction – plasminogen activation absorbance, OD405, dose response (AID 1914); assay type: functional, Streptococcus pyogenes M1 GAS;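 further: secreted streptokinase activity via plasminogen activation per viability signal from cell pellet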
# T6 sequence (P10520 whole entry): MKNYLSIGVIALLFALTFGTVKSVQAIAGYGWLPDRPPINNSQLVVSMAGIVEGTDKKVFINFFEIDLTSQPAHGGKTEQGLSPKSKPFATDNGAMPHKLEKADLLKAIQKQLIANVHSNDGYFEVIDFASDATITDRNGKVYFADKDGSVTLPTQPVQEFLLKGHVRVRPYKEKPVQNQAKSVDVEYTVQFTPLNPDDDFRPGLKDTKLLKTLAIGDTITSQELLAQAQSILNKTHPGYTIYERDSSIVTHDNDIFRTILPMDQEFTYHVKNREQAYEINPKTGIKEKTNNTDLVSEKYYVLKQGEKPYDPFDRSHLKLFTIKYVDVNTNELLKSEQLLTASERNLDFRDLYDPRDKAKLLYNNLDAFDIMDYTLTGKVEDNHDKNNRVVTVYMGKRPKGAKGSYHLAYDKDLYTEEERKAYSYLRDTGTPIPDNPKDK
# [14] = microbe, parasite or virus in culture; assay type: functional; details: Mycobacterium tuberculosis
# [15] = viability of PTEN-deleted HCT116 cells – cell-based, HCT116 PTEN knockout, dose response (AID 1047); assay type: functional;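 further: HCT116 colon tumor cells with PTEN knocked out; cells exposed to compound for 60 hours before readout; potency for loss of cell viability measured by luminescence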
# [16] = viability of HCT116 lacking mutant beta-catenin – cell-based, human colon tumor, dose response (AID 1045); assay type: functional;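 further: HCT116 colon tumor cells with beta catenin knocked out; cells exposed to compound for 60 hours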
# [17] = test system: Streptococcus; assay: GAS UMAA2166 growth inhibition – luminescence, BacTiterGlo, counter-screen for streptokinase expression inhibitor project, dose response (AID 1915); assay type: functional, organism-based;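 further: potency for reduction of bacterial viability or growth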
# [18] = target: Neurotensin receptor type 1 (Homo sapiens, UniProt P30989); assay type: functional;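 further: Image-based confirmatory dose-response assay measuring agonist activity at NTR1; NTR1-expressing U2OS osteosarcoma cells imaged for beta-arrestin GFP spot formation; agonist potency where compounds increase beta-arrestin recruitment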
# Sequence of Neurotensin receptor type 1 (P30989 whole entry): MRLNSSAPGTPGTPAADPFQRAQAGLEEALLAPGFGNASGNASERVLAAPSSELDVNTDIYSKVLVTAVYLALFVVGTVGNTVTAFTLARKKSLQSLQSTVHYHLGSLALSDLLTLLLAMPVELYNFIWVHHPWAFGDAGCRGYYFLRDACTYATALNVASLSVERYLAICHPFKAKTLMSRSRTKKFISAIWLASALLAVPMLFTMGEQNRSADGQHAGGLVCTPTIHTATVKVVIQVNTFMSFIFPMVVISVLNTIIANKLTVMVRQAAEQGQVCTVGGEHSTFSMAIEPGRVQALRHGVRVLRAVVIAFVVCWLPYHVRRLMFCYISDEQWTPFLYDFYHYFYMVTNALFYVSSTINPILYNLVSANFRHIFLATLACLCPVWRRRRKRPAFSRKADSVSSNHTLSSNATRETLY
# [19] = HEK-293T viability loss after treatment – luminescence, T-cell screen hits, cytotoxicity control for TCR NF-kB inhibitor project, dose response (AID 489026); assay type: functional, cell-based;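 further: cells exposed to compound about 14 hours before the viability readout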
# [20] = test system: INS1; assay: INS-1E survival protection against cytokine death – cell-based, luminescence, retest, dose response (AID 449756); assay type: functional; details: Rattus norvegicus;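 further: cell death triggered by IL-1 beta plus TNF-alpha plus IFN-gamma mixture; protective hits raise ATP signal compared with cytokine alone wells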
# [21] = target: Melanocortin receptor 4 (Homo sapiens, UniProt P32245); assay type: functional, cell-based;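 further: Cell-based assay with luminescence read-out, confirmatory dose-response testing for agonist activity of biased ligands at MC4R; human U2OS cells with tagged receptor and beta-arrestin; potency of agonists that increase receptor coupling to beta-arrestin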
# Sequence of Melanocortin receptor 4 (P32245 whole entry): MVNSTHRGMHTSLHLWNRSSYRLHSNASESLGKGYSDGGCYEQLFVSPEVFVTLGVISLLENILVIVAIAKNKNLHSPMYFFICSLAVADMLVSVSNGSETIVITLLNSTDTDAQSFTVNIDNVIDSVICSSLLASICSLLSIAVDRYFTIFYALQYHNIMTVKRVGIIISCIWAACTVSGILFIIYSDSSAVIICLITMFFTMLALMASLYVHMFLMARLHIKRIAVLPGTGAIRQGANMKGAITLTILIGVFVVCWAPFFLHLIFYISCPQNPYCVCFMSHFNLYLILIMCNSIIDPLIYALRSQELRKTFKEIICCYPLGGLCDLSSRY
smiles,measurement,setting,value
COc1cccc(N2CCN(Cc3ccsc3)CC2)c1,IC50,[1],> 100 µM (inactive)
Clc1ccc(Nc2nc(-c3cccs3)cs2)nc1,CC50,[2],8.33 µM (active)
same,EC50,[3],1.58 µM (active)
same,Absolute IC50 (CHOP),[4],10 µM
same,Absolute IC50 (XBP1),[5],10 µM
same,IC50,[6],13.6 µM (active)
same,EC50,[7],> 67.5 µM (inactive)
CC1=NNC(=O)/C1=C\c1cn(-c2ccccc2)nc1-c1ccc(Cl)cc1,EC50,[8],> 30 µM (inconclusive)
same,EC50,[9],5 µM (active)
same,EC50,[10],> 60 µM (not active)
same,EC50,[11],6.61 µM (active)
same,EC50,[12],7.48 µM (active)
same,EC50,[13],4.83 µM (active)
same,CC50,[14],20.2 µM (active)
same,EC50,[15],3.63 µM (active)
same,EC50,[16],3.51 µM (active)
same,EC50,[17],14.5 µM (active)
same,EC50,[18],16.8 µM (active)
same,IC50,[19],> 80 µM (inactive)
same,AC50,[20],8.09 µM (active)
same,EC50,[21],> 89.2 µM (inactive)
